Reference: patent US11179383B2 (Gilead Sciences, Inc., priority 2018, dated 2021)

What follows are molecules tested against T1, α4β7 integrin (Homo sapiens, UniProt P13612+P26010) (assay: α4β7 Integrin Cell Capture Assay). Details: EC50 α4β7 (nM), capture of α4β7 integrin expressing RPMI8866 cells on recombinant MadCAM-1 extracellular domain-coated plate; DMEM+0.5% FBS+0.5 mM MnCl2.
T1 construct: monitoring the capture of α4β7 integrin expressing cells on a recombinant MadCAM-1 extracellular domain-coated plate; endogenous in cells; host or cells: RPMI8866 cells
T1 sequence (P13612 34-1032): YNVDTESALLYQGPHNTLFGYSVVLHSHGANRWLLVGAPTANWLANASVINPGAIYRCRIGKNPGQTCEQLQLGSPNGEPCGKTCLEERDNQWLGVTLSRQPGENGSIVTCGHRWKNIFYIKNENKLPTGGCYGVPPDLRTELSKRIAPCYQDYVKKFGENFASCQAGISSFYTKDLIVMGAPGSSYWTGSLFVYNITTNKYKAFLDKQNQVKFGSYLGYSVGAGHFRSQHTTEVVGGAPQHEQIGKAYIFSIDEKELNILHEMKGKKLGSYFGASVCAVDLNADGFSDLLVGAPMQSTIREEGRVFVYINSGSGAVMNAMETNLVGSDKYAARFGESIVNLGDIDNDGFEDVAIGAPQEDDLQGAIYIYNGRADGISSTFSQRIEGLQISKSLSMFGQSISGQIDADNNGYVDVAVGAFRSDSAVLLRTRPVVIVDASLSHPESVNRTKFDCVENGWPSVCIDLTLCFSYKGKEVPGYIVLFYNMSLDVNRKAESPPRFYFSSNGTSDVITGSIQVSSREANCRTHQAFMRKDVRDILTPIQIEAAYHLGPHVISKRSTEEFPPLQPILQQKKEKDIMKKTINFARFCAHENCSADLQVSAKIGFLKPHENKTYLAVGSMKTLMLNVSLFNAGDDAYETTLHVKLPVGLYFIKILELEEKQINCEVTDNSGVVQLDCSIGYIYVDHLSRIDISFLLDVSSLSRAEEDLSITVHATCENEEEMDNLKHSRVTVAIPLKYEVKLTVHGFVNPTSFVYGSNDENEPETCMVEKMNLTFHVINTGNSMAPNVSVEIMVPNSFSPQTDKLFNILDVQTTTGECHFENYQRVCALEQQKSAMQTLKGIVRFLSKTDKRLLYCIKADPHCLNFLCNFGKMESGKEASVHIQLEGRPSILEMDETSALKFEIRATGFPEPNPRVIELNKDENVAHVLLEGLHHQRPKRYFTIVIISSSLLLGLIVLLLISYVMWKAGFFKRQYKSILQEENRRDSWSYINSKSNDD
T1 sequence (P26010 20-798): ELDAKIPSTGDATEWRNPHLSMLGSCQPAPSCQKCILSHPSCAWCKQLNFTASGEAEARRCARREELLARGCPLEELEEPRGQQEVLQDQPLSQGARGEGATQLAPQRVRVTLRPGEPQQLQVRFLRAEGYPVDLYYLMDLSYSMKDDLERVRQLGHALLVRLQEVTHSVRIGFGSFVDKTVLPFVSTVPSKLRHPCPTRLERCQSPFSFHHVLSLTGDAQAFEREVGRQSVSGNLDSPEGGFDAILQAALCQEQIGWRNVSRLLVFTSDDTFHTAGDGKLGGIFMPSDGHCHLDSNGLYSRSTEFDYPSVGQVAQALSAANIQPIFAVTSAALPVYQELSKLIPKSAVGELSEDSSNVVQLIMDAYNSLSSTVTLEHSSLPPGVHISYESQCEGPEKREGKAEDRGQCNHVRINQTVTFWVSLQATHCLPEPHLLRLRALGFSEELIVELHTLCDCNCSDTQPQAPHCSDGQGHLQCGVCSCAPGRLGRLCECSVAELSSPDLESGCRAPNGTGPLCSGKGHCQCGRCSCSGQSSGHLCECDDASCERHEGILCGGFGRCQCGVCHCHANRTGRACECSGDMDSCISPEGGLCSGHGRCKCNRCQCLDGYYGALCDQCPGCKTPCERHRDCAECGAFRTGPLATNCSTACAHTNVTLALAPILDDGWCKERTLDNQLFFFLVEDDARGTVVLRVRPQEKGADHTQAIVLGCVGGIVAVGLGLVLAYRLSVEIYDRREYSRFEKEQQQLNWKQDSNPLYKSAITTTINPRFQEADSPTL
Assay type: cell-based
Outline: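 RPMI8866 cells in DMEM + 0.5% FBS + 0.5 mM MnCl2 preincubated with compound 1 h at 37 °C, then allowed to bind 30 min at 37 °C to plates coated with MAdCAM-1 extracellular domain (1.0 μg/mL). Cells fixed with glutaraldehyde, Hoechst-stained, imaged and bound cells counted; EC50 from cell count versus concentration.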

Compound | EC50
CN(C)C(=O)Oc1ccc(C[C@H](NC(=O)c2c(Cl)cccc2Cl)C(=O)O)c2ncccc12 [Example 89, (S)-2-(2,6-dichlorobenzamido)-3-(5-((dimethylcarbamoyl)oxy)quinolin-8-yl)propanoic acid] | 173 nM

Same assay, conditions: capture of α4β7 integrin expressing RPMI8866 cells on recombinant MadCAM-1 extracellular domain-coated plate; DMEM+0.5% FBS+0.5 mM MnCl2; read-out: EC50 α4β7

Compound | EC50
COc1cc(F)c(C)cc1-c1ccc(C[C@H](NC(=O)c2c(Cl)cccc2Cl)C(=O)O)c2ncccc12 [Example 56, (S)-2-(2,6-dichlorobenzamido)-3-(5-(4-fluoro-2-methoxy-5-methylphenyl)quinolin-8-yl)propanoic acid] | 68.5 nM
O=C(N[C@@H](Cc1ccc(-c2nccc(Cl)c2C(F)(F)F)c2cccnc12)C(=O)O)c1c(Cl)cccc1Cl [Example 57, (S)-3-(5-(4-chloro-3-(trifluoromethyl)pyridin-2-yl)quinolin-8-yl)-2-(2,6-dichlorobenzamido)propanoic acid] | 23.6 nM
Cn1c(=O)c(-c2ccc(C[C@H](NC(=O)c3c(Cl)cccc3Cl)C(=O)O)c3ncccc23)c(C(F)(F)F)c2cc(Br)ccc21 [Example 58, (S)-3-(6-bromo-1-methyl-2-oxo-4-(trifluoromethyl)-1,2-dihydro-[3,5′-biquinolin]-8′-yl)-2-(2,6-dichlorobenzamido)propanoic acid] | 19.2 nM
Cn1c(=O)c(-c2ccc(C[C@H](NC(=O)c3c(Cl)cccc3Cl)C(=O)O)c3ncccc23)c(C(F)(F)F)c2ccccc21 [Example 59, (S)-2-(2,6-dichlorobenzamido)-3-(1-methyl-2-oxo-4-(trifluoromethyl)-1,2-dihydro-[3,5′-biquinolin]-8′-yl)propanoic acid] | 10.7 nM
Cc1c(-c2ccc(C[C@H](NC(=O)c3c(Cl)cccc3Cl)C(=O)O)c3ncccc23)c(=O)n(C)c2ccc(C(F)(F)F)cc12 [Example 66, (S)-2-(2,6-dichlorobenzamido)-3-(1,4-dimethyl-2-oxo-6-(trifluoromethyl)-1,2-dihydro-[3,5′-biquinolin]-8′-yl)propanoic acid] | 6.2 nM
Cc1c(-c2ccc(C[C@H](NC(=O)c3c(Cl)cccc3Cl)C(=O)O)c3ncccc23)c(=O)n(C)c2ccc(Cl)cc12 [Example 67, (S)-3-(6-chloro-1,4-dimethyl-2-oxo-1,2-dihydro-[3,5′-biquinolin]-8′-yl)-2-(2,6-dichlorobenzamido)propanoic acid] | 2.5 nM
Cn1c2c(c(C(F)(F)F)c(-c3ccc(C[C@H](NC(=O)c4c(Cl)cccc4Cl)C(=O)O)c4ncccc34)c1=O)CCC2 [Example 68, (S)-2-(2,6-dichlorobenzamido)-3-(5-(1-methyl-2-oxo-4-(trifluoromethyl)-2,5,6,7-tetrahydro-1H-cyclopenta[b]pyridin-3-yl)quinolin-8-yl)propanoic acid] | 2.7 nM
COc1cnn(C)c(=O)c1-c1ccc(C[C@H](NC(=O)c2c(Cl)cccc2Cl)C(=O)O)c2ncccc12 [Example 69, (S)-2-(2,6-dichlorobenzamido)-3-(5-(5-methoxy-2-methyl-3-oxo-2,3-dihydropyridazin-4-yl)quinolin-8-yl)propanoic acid] | 9.2 nM
Cc1c(-c2ccc(C[C@H](NC(=O)c3c(Cl)cccc3Cl)C(=O)O)c3ncccc23)c(=O)n(C)c2ccc(Br)cc12 [Example 70, (S)-3-(6-bromo-1,4-dimethyl-2-oxo-1,2-dihydro-[3,5′-biquinolin]-8′-yl)-2-(2,6-dichlorobenzamido)propanoic acid] | 55.1 nM
Cc1c(-c2ccc(C[C@H](NC(=O)c3c(Cl)cccc3Cl)C(=O)O)c3ncccc23)c(=O)n(C)c2ccc(C3CC3)cc12 [Example 71, (S)-3-(6-cyclopropyl-1,4-dimethyl-2-oxo-1,2-dihydro-[3,5′-biquinolin]-8′-yl)-2-(2,6-dichlorobenzamido)propanoic acid] | 15.4 nM
COc1cnn(C)c(=O)c1-c1ccc(C[C@H](NC(=O)c2c(Cl)cccc2Cl)C(=O)O)c2ncccc12 [Example 72, (S)-2-(2,6-dichlorobenzamido)-3-(5-(5-methoxy-2-methyl-3-oxo-2,3-dihydropyridazin-4-yl)quinolin-8-yl)propanoic acid] | 11.2 nM
Cc1c(-c2ccc(C[C@H](NC(=O)c3c(Cl)cccc3Cl)C(=O)O)c3ncccc23)c(=O)n(C)c2cc(Cl)ccc12 [Example 74, (S)-3-(7-chloro-1,4-dimethyl-2-oxo-1,2-dihydro-[3,5′-biquinolin]-8′-yl)-2-(2,6-dichlorobenzamido)propanoic acid] | 131 nM
CCOCc1cc(OC)c(-c2ccc(C[C@H](NC(=O)c3c(F)cccc3F)C(=O)O)c3ncccc23)c(OC)c1 [Example 78, (S)-2-(2,6-difluorobenzamido)-3-(5-(4-(ethoxymethyl)-2,6-dimethoxyphenyl)quinolin-8-yl)propanoic acid] | 12.4 nM
COc1cc(F)c(F)cc1-c1ccc(C[C@H](NC(=O)c2c(F)cccc2F)C(=O)O)c2ncccc12 [Example 79, (S)-3-(5-(4,5-difluoro-2-methoxyphenyl)quinolin-8-yl)-2-(2,6-difluorobenzamido) propanoic acid] | 45.7 nM
Cn1cc(-c2ccc(C[C@H](NC(=O)c3c(F)cccc3F)C(=O)O)c3ncccc23)c(=O)n(C)c1=O [Example 80, (S)-2-(2,6-difluorobenzamido)-3-(5-(1,3-dimethyl-2,4-dioxo-1,2,3,4-tetrahydropyrimidin-5-yl)quinolin-8-yl)propanoic acid] | 17 nM
O=C(N[C@@H](Cc1ccc(-c2cc(F)c(F)cc2OC2CC2)c2cccnc12)C(=O)O)c1c(F)cccc1F [Example 83, (S)-3-(5-(2-cyclopropoxy-4,5-difluorophenyl)quinolin-8-yl)-2-(2,6-difluorobenzamido)propanoic acid] | 109 nM
Cn1c(=O)c(-c2ccc(C[C@H](NC(=O)c3c(F)cccc3F)C(=O)O)c3ncccc23)cc2ccccc21 [Example 84, (S)-2-(2,6-difluorobenzamido)-3-(1-methyl-2-oxo-1,2-dihydro-[3,5′-biquinolin]-8′-yl)propanoic acid] | 10.9 nM
O=C(N[C@@H](Cc1ccc(-c2ccc(F)cc2Cl)c2c(Cl)ccnc12)C(=O)O)c1c(F)cccc1F [Example 90, (S)-3-(4-chloro-5-(2-chloro-4-fluorophenyl)quinolin-8-yl)-2-(2,6-difluorobenzamido)propanoic acid] | 4280 nM
O=C(N[C@@H](Cc1ccc(-c2ccc(F)cc2Cl)c2c(-c3ccc(F)cc3Cl)ccnc12)C(=O)O)c1c(F)cccc1F [Example 91, (S)-3-(4,5-bis(2-chloro-4-fluorophenyl)quinolin-8-yl)-2-(2,6-difluorobenzamido)propanoic acid] | 686 nM
COc1cc(F)c(F)cc1-c1ccc(C[C@H](NC(=O)c2c(F)cccc2F)C(=O)O)c2nccc(Cl)c12 [Example 92, (S)-3-(4-chloro-5-(4,5-difluoro-2-methoxyphenyl)quinolin-8-yl)-2-(2,6-difluorobenzamido)propanoic acid] | 89.4 nM
